Tested on: 349418-098-R-PDC complex spheroid viability
Assay: Anticancer human tumor 349418-098-R-PDC patient-derived lung adenocarcinoma cell line growth inhibition
Conditions: for IC50: curve of first compound; for viability, T/C: stronger effect = lower value; active = viability on the fitted dose curve at most 10% of control; inactive = the rest
In short: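 Drug combinations with the LSD1 inhibitor iadademstat tested on tumor cells co-cultured as spheroids with endothelial cells and mesenchymal stem cells. Concentrations descended in half-log increments from clinical Cmax or 10 microM.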

[1] = second compound 0.1 µM, first compound 0.00316 µM
[2] = second compound 0.1 µM, first compound 0.01 µM
[3] = second compound 0.1 µM, first compound 0.0316 µM
[4] = second compound 0.1 µM, first compound 0.1 µM
[5] = second compound 0.316 µM, first compound 0.00316 µM
[6] = second compound 0.316 µM, first compound 0.01 µM
[7] = second compound 0.316 µM, first compound 0.0316 µM
[8] = second compound 0.316 µM, first compound 0.1 µM
[9] = second compound 1 µM, first compound 0.00316 µM
[10] = second compound 1 µM, first compound 0.01 µM
[11] = second compound 1 µM, first compound 0.0316 µM
[12] = second compound 1 µM, first compound 0.1 µM
[13] = second compound 3.16 µM, first compound 0.00316 µM
[14] = second compound 3.16 µM, first compound 0.01 µM
[15] = second compound 3.16 µM, first compound 0.0316 µM
[16] = second compound 3.16 µM, first compound 0.1 µM
[17] = second compound 10 µM, first compound 0.00316 µM
[18] = second compound 10 µM, first compound 0.01 µM
[19] = second compound 10 µM, first compound 0.0316 µM
[20] = second compound 10 µM, first compound 0.1 µM
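Note: spheroids exposed to agents for seven days before readout.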
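Throughout, for viability, T/C: 100% = DMSO vehicle control wells.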

COc1cc(Nc2ncc3c(n2)-c2ccc(Cl)cc2C(c2c(F)cccc2OC)=NC3)ccc1C(=O)O + NC1CC1c1ccc(-c2cccc(O)c2)cc1
26 nM: IC50 (second compound 0.1 µM)
inactive: viability, T/C [1] 75.4% | viability, T/C [2] 53.7% | viability, T/C [3] 50.2% | viability, T/C [4] 48.7% | viability, T/C (second compound 0.1 µM, first compound 0.316 µM) 47.5% | viability, T/C (second compound 0.1 µM, first compound 1 µM) 38.7% | viability, T/C [5] 74% | viability, T/C [6] 54.4% | viability, T/C [7] 55.4% | viability, T/C [8] 51% | viability, T/C (second compound 0.316 µM, first compound 0.316 µM) 45.8% | viability, T/C (second compound 0.316 µM, first compound 1 µM) 38.2% | viability, T/C [9] 79.1% | viability, T/C [10] 54.5% | viability, T/C [11] 51.8% | viability, T/C [12] 55.4% | viability, T/C (second compound 1 µM, first compound 0.316 µM) 50.4% | viability, T/C (second compound 1 µM, first compound 1 µM) 35.2% | viability, T/C [13] 73.2% | viability, T/C [14] 47.5% | viability, T/C [15] 59.6% | viability, T/C [16] 47.5% | viability, T/C (second compound 3.16 µM, first compound 0.316 µM) 43.7% | viability, T/C (second compound 3.16 µM, first compound 1 µM) 31.1% | viability, T/C [17] 62.1% | viability, T/C [18] 44.7% | viability, T/C [19] 55.1% | viability, T/C [20] 49.1% | viability, T/C (second compound 10 µM, first compound 0.316 µM) 34.4% | viability, T/C (second compound 10 µM, first compound 1 µM) 25.4%
53.9 nM: IC50 (second compound 1 µM)
42.9 nM: IC50 (second compound 10 µM)
69.9 nM: IC50 (second compound 0.316 µM)
57.8 nM: IC50 (second compound 3.16 µM)

Cn1ncnc1C1c2n[nH]c(=O)c3cc(F)cc(c23)NC1c1ccc(F)cc1 (stereo not given) + NC1CC1c1ccc(-c2cccc(O)c2)cc1
inactive: viability, T/C (second compound 0.1 µM, first compound 0.000316 µM) 115% | viability, T/C (second compound 0.1 µM, first compound 0.001 µM) 105% | viability, T/C [1] 112% | viability, T/C [2] 105% | viability, T/C [3] 101% | viability, T/C [4] 102% | viability, T/C (second compound 0.316 µM, first compound 0.000316 µM) 112% | viability, T/C (second compound 0.316 µM, first compound 0.001 µM) 110% | viability, T/C [5] 111% | viability, T/C [6] 104% | viability, T/C [7] 106% | viability, T/C [8] 101% | viability, T/C (second compound 1 µM, first compound 0.000316 µM) 119% | viability, T/C (second compound 1 µM, first compound 0.001 µM) 112% | viability, T/C [9] 106% | viability, T/C [10] 107% | viability, T/C [11] 108% | viability, T/C [12] 101% | viability, T/C (second compound 3.16 µM, first compound 0.000316 µM) 114% | viability, T/C (second compound 3.16 µM, first compound 0.001 µM) 117% | viability, T/C [13] 105% | viability, T/C [14] 115% | viability, T/C [15] 103% | viability, T/C [16] 103% | viability, T/C (second compound 10 µM, first compound 0.000316 µM) 99.1% | viability, T/C (second compound 10 µM, first compound 0.001 µM) 100% | viability, T/C [17] 98.9% | viability, T/C [18] 96.9% | viability, T/C [19] 90.9% | viability, T/C [20] 86.8%
> 100 nM: IC50 (second compound 0.1 µM) | IC50 (second compound 0.316 µM) | IC50 (second compound 1 µM) | IC50 (second compound 3.16 µM) | IC50 (second compound 10 µM)

NS(=O)(=O)OCC1CC(n2ccc3c(NC4CCc5ccccc54)ncnc32)CC1O (stereo not given) + NC1CC1c1ccc(-c2cccc(O)c2)cc1
64.1 nM: IC50 (second compound 0.1 µM)
inactive: viability, T/C (second compound 0.1 µM, first compound 0.00949 µM) 116% | viability, T/C (second compound 0.1 µM, first compound 0.03 µM) 86.6% | viability, T/C (second compound 0.1 µM, first compound 0.0949 µM) 30.5% | viability, T/C (second compound 0.316 µM, first compound 0.00949 µM) 120% | viability, T/C (second compound 0.316 µM, first compound 0.03 µM) 82.3% | viability, T/C (second compound 0.316 µM, first compound 0.0949 µM) 26.6% | viability, T/C (second compound 1 µM, first compound 0.00949 µM) 124% | viability, T/C (second compound 1 µM, first compound 0.03 µM) 77% | viability, T/C (second compound 1 µM, first compound 0.0949 µM) 31.9% | viability, T/C (second compound 1 µM, first compound 0.3 µM) 11.3% | viability, T/C (second compound 3.16 µM, first compound 0.00949 µM) 124% | viability, T/C (second compound 3.16 µM, first compound 0.03 µM) 81.6% | viability, T/C (second compound 3.16 µM, first compound 0.0949 µM) 29.2% | viability, T/C (second compound 3.16 µM, first compound 0.3 µM) 12.2% | viability, T/C (second compound 10 µM, first compound 0.00949 µM) 106% | viability, T/C (second compound 10 µM, first compound 0.03 µM) 55.5% | viability, T/C (second compound 10 µM, first compound 0.0949 µM) 28.1% | viability, T/C (second compound 10 µM, first compound 0.3 µM) 9.97%
60.7 nM: IC50 (second compound 3.16 µM)
38 nM: IC50 (second compound 10 µM)
59.6 nM: IC50 (second compound 1 µM)
59.1 nM: IC50 (second compound 0.316 µM)
active: viability, T/C (second compound 0.1 µM, first compound 0.3 µM) 11.9% | viability, T/C (second compound 0.1 µM, first compound 0.949 µM) 5.29% | viability, T/C (second compound 0.1 µM, first compound 3 µM) 4.99% | viability, T/C (second compound 0.316 µM, first compound 0.3 µM) 12.4% | viability, T/C (second compound 0.316 µM, first compound 0.949 µM) 5.84% | viability, T/C (second compound 0.316 µM, first compound 3 µM) 4.12% | viability, T/C (second compound 1 µM, first compound 0.949 µM) 5.2% | viability, T/C (second compound 1 µM, first compound 3 µM) 4.27% | viability, T/C (second compound 3.16 µM, first compound 0.949 µM) 5.08% | viability, T/C (second compound 3.16 µM, first compound 3 µM) 4.44% | viability, T/C (second compound 10 µM, first compound 0.949 µM) 4.94% | viability, T/C (second compound 10 µM, first compound 3 µM) 2.73%

From PubChem BioAssay AID1918936 (Molecular Pharmacology Branch, DTP, NCI, 2023)
